US20210244712A1, “METHODS FOR TREATING PATIENTS WITH CANCER HAVING DEFECTS IN CYCLIN D REGULATION” (NysnoBio Ireland DAC, priority 2018, published 2021)

Legend:
Type in all cases: cell-based
cyclin E1 = test: Western blot of cellular biomarker cyclin E1; conditions: 250 nM Compound 42, 24 hours, compared to palbociclib 1 μM
Description: (§1) Various cancer cells lines were treated with Compound 42 or palbociclib (control) to measure the expression of cyclin D, cyclin E, pRb, and Rb.
(§2) Day 1: 6 well plate was seeded with 3×10^5 cells/well with a final volume of 3 mL and incubated for 24 hours at 37° C.
(§3) Day 2: The media was removed and Compound 42 (see below for dose) or palbociclib (1 μM) as positive control were added to the wells the desired concentration in cell culture media, giving a final volume of 3 mL per well. The plate was incubated for 24 hours at 37° C. (or desired period).
(§4) Day 3: The media was removed from wells and washed ×3 with PBS. 500 μl of trypsin was added to the wells and incubate until cells detach. 500 μl media was added to neutralise trypsin, transferred to 2 ml Eppendorfs, and centrifuged (1500 RPM for 5 minutes). While spinning, the wells were washed with 1 mL PBS to collect any remaining cells. This wash was used to centrifuged cell pellet. After the first spin, the supernatant was discarded and the pellet was washed with PBS collected from the previous step. The centrifugation step was repeated and the supernatant was discarded and the pellet wash again with fresh PBS. The centrifugation and wash with PBS was repeated one more time. RIPA cell lysate buffer was prepared and Protease Inhibitor Cocktail was included. The supernatant was discarded and […] RIPA cell lysate buffer was added to the pellet. The protein concentration was determined using the BCA assay kit.
Day 4: Western blot analysis was performed. 4-12% Bis-Tris gel and MOPS running buffer was used. The running buffer was made to sufficient volume of running buffer to 1× concentration. 20 μg protein (v/v loading & reducing buffer) of each sample was loaded into wells. Some proteins may require more, or less, protein loaded. The gel was ran at standard settings 200 V for 45 minutes. […] The membrane was blocked using 5% non-fat powdered milk* made up in 1×TBS containing 0.1% Tween (TBS-T and incubated for 1 hr with gentle rocking. The observation from the Western blot analysis is quantified in FIGS. 2-7D. […]

A2780 = test: Senescence quantification (SA-βGal); conditions: Compound 42 50, 100, or 150 nM, 96 hours, compared to control (DMSO)
Description: (§5) Senescence was quantified in ovarian cell lines A2780, OAW42, and ES-2. Cell lines A2780 has no cyclin D pathway mutations and has wt Rb and Parkin expression. Cell line OAW42 has increased CDK4 and increased CDK6 with wt Rb and Parkin expression. Cell line ES-2 has increased cyclin D and increased mutant […] with wt Rb and Parkin expression.
(§6) Day 1: 96 well plate was seeded with 4000 cells/well and incubated for 24 hours at 37° C.
(§7) Day 2: Compound 42 (50, 100, or 150 nM) or palbociclib (1 μM) as positive control were added to the wells and the plate was incubated for 96 hours at 37° C.
(§8) Day 6: Senescence cells histochemical Staining Kit (Sigma) was used. The growth medium form the cells were aspirated then washed twice with fresh […]. […] 100 μL filtered Fixation Buffer was added per well and the plate was incubated for 6-7 minutes at room temperature. Then, the cells were rinsed 3 times with PBS. 50 μL of the Staining Mixture was added per well and incubated at 37° C. overnight without CO2 (staining is pH dependent). After staining, the Staining Mixture was removed, PBS and Hoechst dye (1 μg/mL) were added. Ten images were taken with Epifluorescence Microscope using the blue filter and 10 images were taken in the brightfield. The images were used to count the total cell number—the positive blue cells were counted in the bright field. The percentage of cells expressing β-galactosidase was calculated.
(§9) Method 1: Mammalian β-Galactosidase Assay Kit (Thermo Scientific) was used. […] The cells were washed once with PBS. 100 μL of the β-Galactosidase Assay Reagent was added to each well and the plate was covered and incubated for 30 minutes at 37° C. without CO2. The absorbance was measured at 405 nm. If no change was observed, the plate was incubated for an extra 30 minutes.
(§10) Method 2: Assay of a portion of the lysate. The cells were washed once with PBS. 50 μL of the M-PER Reagent was added to each well and the plate was incubated at room temperature for […]. 25 μL of lysate was removed and use it for Protein Quantification (BCA). The date was normalize by protein content.

ES-2 = test: Senescence quantification (SA-βGal); conditions: Compound 42 50, 100, or 150 nM, 96 hours, compared to control (DMSO)
Description: as §5, §6, §7, §8, §9, §10

Cyclin D = test: Western blot of cellular biomarker cyclin D
Description: as §1, §2, §3, §4
Day 4: Western blot analysis was performed. 4-12% Bis-Tris gel and MOPS running buffer was used. The running buffer was made to sufficient volume of running buffer to 1× concentration. 20 μg protein (v/v loading & reducing buffer) of each sample was loaded into wells. Some proteins may require more, or less, protein loaded. The gel was ran at standard settings 200 V for 45 minutes. Once gel has run, the gel was transferred for 7 minutes using the iBlot Blotting System. The membrane was blocked using 5% non-fat powdered milk* made up in 1×TBS containing 0.1% Tween (TBS-T and incubated for 1 hr with gentle rocking. The observation from the Western blot analysis is quantified in FIGS. 2-7D.
Cell line JEKO-1 (mantle cell line with cyclin D chromosome translocation, amplification of cyclin D) was treated with DMSO (control), 500 nM of Compound 42, or 1 μM of Palbociclib. Treated cells were incubated for 48 hours and data represented in FIGS. 6A-6C represents n=1.

COV504 = test: Cell proliferation assay; conditions: 72 hrs, read-out: Cell Viability: IC50
Summary of the method: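 Cells seeded at 4×10^4 cells/ml and left overnight at 37° C., 5% CO2, then given compound at varying concentrations in triplicate for 72 hrs. Proliferation was read by acid phosphatase assay (10 mM p-nitrophenol phosphate, pH 5.5, 2 hours, 37° C.) at 405 nm minus 620 nm, as % inhibition versus DMSO controls.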

Compound	cyclin E1 expression (cyclin E1; A2780)	cyclin E1 expression (cyclin E1; ES-2)	cyclin E1 expression (cyclin E1; OAW42)	senescence (SA-βGal levels) (A2780)	senescence (SA-βGal levels) (ES-2)	normalization of cyclin D (Cyclin D; HCT-116 (p16 mutation), Compound 42 250 nM, Palbociclib 1 μM)	cyclin D expression (Cyclin D; HT116, with increasing concentration)	cyclin D expression (Cyclin D; JEKO-1, 500 nM Compound 42, 48 hours, compared to palbociclib 1 μM)	cyclin D expression (Cyclin D; OAW28)	IC50 (COV504)
Cc1ccccc1C(=O)Nc1nc(NC(=O)c2ccccc2C)n(-c2ccc(OC(F)(F)F)cc2)n1 [Compound 42, N,N′-(1-(4-(trifluoromethoxy)phenyl)-1H-1,2,4-triazole-3,5-diyl)bis(2-methylbenzamide)]	reduction of cyclin E1 expressions	reduction of cyclin E1 expressions	some reduction of cyclin E1 expression	induced senescence	induced senescence	normalized cyclic D	reduction	reduction of cyclin E and cyclin D expression	decreased	–
Cc1ccccc1C(=O)Nc1nc(NC(=O)c2ccccc2C)n(-c2ccccc2)n1 [Compound F, 2-methyl-N-[5-[(2-methylbenzoyl)amino]-1-phenyl-1,2,4-triazol-3-yl]benzamide]	–	–	–	–	–	–	–	–	–	2000 nM
